In ChEMBL document CHEMBL4049405, “Investigation on cellular uptake and pharmacodynamics of DOCK2-inhibitory peptides conjugated with cell-penetrating peptides” (Bioorg Med Chem, 2017):
The source made the active and inactive calls. The calls are words filed in the database; no cut-off is given here. Positions of bridges follow the written chain, without caps; N, C: chain ends. Non-standard residues stand in square brackets, D forms with d. Residues, ends and D or L forms follow the SMILES beside them. *: point of attachment. X2 = CC(=O)[C@H]1CSC(c2nc3ccc(OC(=O)OCCCS*)cc3s2)=N1; Nle = CCCC[C@H](N)C(=O)O

Columns and labels:
[1] = test system: Mino; test: Antimigratory activity against human Mino cells assessed as inhibition of S1P stimulated cell migration at 1.1 uM measured after 30 mins by Cell-titer Glo assay; type: functional, cell-based
[2] = test system: Mino; test: Antimigratory activity against human Mino cells assessed as inhibition of S1P stimulated cell migration at 3.3 uM measured after 30 mins by Cell-titer Glo assay relative to control; type: functional
[3] = biological target: Dedicator of cytokinesis protein 2 (Homo sapiens, UniProt Q92608); test: Inhibition of Rac1 binding to biotinylated DOCK2 (unknown origin) by ELISA
[4] = Drug uptake in HEK293T cells expressing luciferase reporter gene at 50 uM measured every 3 mins for 60 mins by luminescence assay relative to 50 uM luciferin; type: ADME, cell-based; conditions: human, hek-293t, 1 h
[5] = in vitro; conditions: human, HEK293T cells
Description: Cytotoxicity against HEK293T cells assessed as cell viability at 25 uM by CellTiter-Glo assay relative to control

[6] = in vitro; conditions: human, HEK293T cells; remark: listed apart in the source
Description: Cytotoxicity against HEK293T cells assessed as cell viability at 12.5 uM by CellTiter-Glo assay relative to control

[7] = in vitro; conditions: human, HEK293T cells; remark: listed apart in the source
Description: Cytotoxicity against HEK293T cells assessed as cell viability at 6.3 uM by CellTiter-Glo assay relative to control

[8] = Cytotoxicity against HEK293T cells assessed as cell viability at 50 uM by CellTiter-Glo assay relative to control; conditions: human

Sequence of Dedicator of cytokinesis protein 2 (Q92608 whole entry): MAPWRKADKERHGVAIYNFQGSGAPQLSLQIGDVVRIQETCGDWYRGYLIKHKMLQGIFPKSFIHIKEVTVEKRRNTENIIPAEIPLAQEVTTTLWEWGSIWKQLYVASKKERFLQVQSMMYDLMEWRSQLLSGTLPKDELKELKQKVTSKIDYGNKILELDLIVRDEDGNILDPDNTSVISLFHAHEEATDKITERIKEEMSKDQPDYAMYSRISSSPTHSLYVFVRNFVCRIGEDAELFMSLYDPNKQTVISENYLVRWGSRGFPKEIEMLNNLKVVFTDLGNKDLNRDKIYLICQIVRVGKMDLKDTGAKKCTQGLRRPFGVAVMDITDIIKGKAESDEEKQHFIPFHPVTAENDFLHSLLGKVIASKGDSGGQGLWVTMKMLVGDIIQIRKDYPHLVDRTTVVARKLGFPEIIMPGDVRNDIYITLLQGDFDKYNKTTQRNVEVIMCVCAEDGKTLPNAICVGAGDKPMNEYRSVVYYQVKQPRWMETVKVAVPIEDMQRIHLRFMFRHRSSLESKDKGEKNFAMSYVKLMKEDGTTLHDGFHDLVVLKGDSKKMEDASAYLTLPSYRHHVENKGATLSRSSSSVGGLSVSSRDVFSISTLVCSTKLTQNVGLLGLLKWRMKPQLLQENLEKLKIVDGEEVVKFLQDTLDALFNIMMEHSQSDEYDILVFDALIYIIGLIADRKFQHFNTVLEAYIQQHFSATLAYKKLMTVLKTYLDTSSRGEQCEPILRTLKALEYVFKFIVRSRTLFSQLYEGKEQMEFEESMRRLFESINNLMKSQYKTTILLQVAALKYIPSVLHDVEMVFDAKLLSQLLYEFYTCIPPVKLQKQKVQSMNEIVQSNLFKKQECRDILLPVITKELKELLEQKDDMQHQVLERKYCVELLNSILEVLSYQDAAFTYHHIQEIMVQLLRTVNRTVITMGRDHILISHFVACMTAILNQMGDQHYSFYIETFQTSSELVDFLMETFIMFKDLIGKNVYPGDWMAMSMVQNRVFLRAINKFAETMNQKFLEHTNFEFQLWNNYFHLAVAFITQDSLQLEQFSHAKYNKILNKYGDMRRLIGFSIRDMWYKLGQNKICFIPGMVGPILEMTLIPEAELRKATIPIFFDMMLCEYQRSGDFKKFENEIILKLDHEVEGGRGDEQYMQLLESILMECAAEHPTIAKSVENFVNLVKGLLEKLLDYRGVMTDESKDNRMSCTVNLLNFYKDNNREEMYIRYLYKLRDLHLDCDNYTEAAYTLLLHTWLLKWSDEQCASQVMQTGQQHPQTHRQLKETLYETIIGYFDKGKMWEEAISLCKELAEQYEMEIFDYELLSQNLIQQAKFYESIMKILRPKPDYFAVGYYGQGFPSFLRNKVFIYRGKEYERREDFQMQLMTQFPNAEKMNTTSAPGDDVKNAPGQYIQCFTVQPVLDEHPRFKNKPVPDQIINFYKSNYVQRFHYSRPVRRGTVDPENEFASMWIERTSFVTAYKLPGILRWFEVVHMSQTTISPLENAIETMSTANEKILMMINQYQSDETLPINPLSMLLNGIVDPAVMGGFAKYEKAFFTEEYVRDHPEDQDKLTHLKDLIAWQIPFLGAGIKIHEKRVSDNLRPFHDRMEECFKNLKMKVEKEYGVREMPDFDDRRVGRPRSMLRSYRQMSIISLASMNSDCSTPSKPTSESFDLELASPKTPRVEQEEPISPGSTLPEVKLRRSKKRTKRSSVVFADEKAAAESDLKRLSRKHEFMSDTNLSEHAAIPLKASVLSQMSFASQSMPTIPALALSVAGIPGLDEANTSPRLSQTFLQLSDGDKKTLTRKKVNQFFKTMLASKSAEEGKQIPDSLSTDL

Structure (SMILES) | inhibition [1] | inhibition [2] | IC50 [3] [nM] | fold change (FC) [4] | viability at 25 µM [5] [%] | viability at 12.5 µM [6] [%] | viability at 6.3 µM [7] [%] | viability at 50 µM [8] [%]
CCCC[C@H](NC(=O)[C@H](CCCNC(=N)N)NC(=O)[C@H](CCCNC(=N)N)NC(=O)[C@H](CC(N)=O)NC(=O)[C@H](CCC(N)=O)NC(=O)[C@H](Cc1ccccc1)NC(=O)[C@H](Cc1c[nH]c2ccccc12)NC(=O)[C@@H](NC(=O)[C@H](CCCCN)NC(=O)[C@@H](NC(=O)[C@H](CCC(N)=O)NC(=O)[C@H](CCCNC(=N)N)NC(=O)[C@H](CCCNC(=N)N)NC(=O)[C@H](CCCNC(=N)N)NC(=O)[C@H](CCCNC(=N)N)NC(=O)[C@@H]1CSSC[C@H](NC(C)=O)C(=O)N[C@@H](C(C)C)C(=O)N[C@@H](C)C(=O)N[C@@H](CCCCN)C(=O)N[C@@H](Cc2ccc(O)cc2)C(=O)N[C@@H](Cc2cnc[nH]2)C(=O)NCC(=O)N[C@@H](Cc2ccc(O)cc2)C(=O)N2CCC[C@H]2C(=O)N[C@@H](Cc2c[nH]c3ccccc23)C(=O)N1)[C@@H](C)CC)[C@@H](C)CC)C(=O)N[C@@H](CCCCN)C(=O)N[C@@H](Cc1c[nH]c2ccccc12)C(=O)N[C@@H](CCCCN)C(=O)N[C@@H](CCCCN)C(N)=O (Ac-CVAKYHGYPWCRRRRQIKIWFQNRR[Nle]KWKK-NH2; disulfide 1-11) | Active | Active | 95 | – | – | – | – | –
CC(=O)N[C@@H](CSSCCCOC(=O)Oc1ccc2nc(C3=N[C@@H](C(C)=O)CS3)sc2c1)C(=O)N[C@H]1CSSC[C@@H](C(=O)N[C@@H](CCCNC(=N)N)C(=O)N[C@@H](CCCNC(=N)N)C(=O)N[C@@H](CCCNC(=N)N)C(N)=O)NC(=O)[C@H](Cc2c[nH]c3ccccc23)NC(=O)[C@@H]2CCCN2C(=O)[C@H](Cc2ccc(O)cc2)NC(=O)CNC(=O)[C@H](Cc2cnc[nH]2)NC(=O)[C@H](Cc2ccc(O)cc2)NC(=O)[C@H](CCCCN)NC(=O)[C@H](C)NC(=O)[C@H](C(C)C)NC1=O (Ac-C(X2)CVAKYHGYPWCRRR-NH2; disulfide 2-12) | – | – | – | 22.8 | 115 | 112 | 105 | 126
CC(=O)N[C@H]1CSSC[C@@H](C(=O)N[C@@H](CCCNC(=N)N)C(=O)N[C@@H](CCCNC(=N)N)C(=O)N[C@@H](CCCNC(=N)N)C(=O)N[C@@H](C)C(=O)N[C@@H](CC(C)C)C(=O)N[C@@H](Cc2c[nH]c3ccccc23)C(=O)N[C@@H](CCCCN)C(=O)N[C@H](C(=O)N[C@@H](CC(C)C)C(=O)N[C@@H](CC(C)C)C(=O)N[C@@H](CCCCN)C(=O)N[C@@H](CCCCN)C(=O)N[C@H](C(=O)N[C@@H](CC(C)C)C(=O)N[C@@H](CCCCN)C(=O)N[C@@H](C)C(=O)N2CCC[C@H]2C(=O)N[C@@H](CCCCN)C(=O)N[C@@H](CCCCN)C(=O)N[C@@H](CCCCN)C(=O)N[C@@H](CCCNC(=N)N)C(=O)N[C@@H](CCCCN)C(=O)N[C@H](C(N)=O)C(C)C)C(C)C)[C@@H](C)O)NC(=O)[C@H](Cc2c[nH]c3ccccc23)NC(=O)[C@@H]2CCCN2C(=O)[C@H](Cc2ccc(O)cc2)NC(=O)CNC(=O)[C@H](Cc2cnc[nH]2)NC(=O)[C@H](Cc2ccc(O)cc2)NC(=O)[C@H](CCCCN)NC(=O)[C@H](C)NC(=O)[C@H](C(C)C)NC1=O (Ac-CVAKYHGYPWCRRRALWKTLLKKVLKAPKKKRKV-NH2; disulfide 1-11) | Active | Active | 71 | – | – | – | – | –
